Laboratory results from the supplement of paper PMC5412046.
Structures can show the parent of a compound that is named as a salt.

Assays:
SB.msgc-1 [1] = test: viability at highest tested concentration (MAXR) relative to DMSO; higher = less cytotoxic; conditions: SB.msgc-1 (sporadic gastric cancer)
In short: (§1)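 Viability, normalised to DMSO, is listed either at the highest concentration or as trapezoidal area under the curve. It was measured in patient-derived gastric cancer cells, hereditary or sporadic, exposed for 48 h to 11 threefold-diluted compound concentrations and then assayed with CellTiter-Glo luminescence.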

SB.mhdgc-1 [2] = test: as above; conditions: SB.mhdgc-1 (hereditary c.1380delA CDH1 gastric cancer)
In short: as §1

SB.msgc-1 [3] = test: area under the dose-response curve of % viability (trapezoidal, 11 doses) (% viability x log10 concentration); higher = less cytotoxic; conditions: SB.msgc-1 (sporadic gastric cancer)
In short: as §1

SB.mhdgc-1 [4] = test: as above; conditions: SB.mhdgc-1 (hereditary c.1380delA CDH1 gastric cancer)
In short: as §1

SMILES	viability (SB.msgc-1 [1])	viability (SB.mhdgc-1 [2])	area under the dose-response curve (SB.msgc-1 [3])	area under the dose-response curve (SB.mhdgc-1 [4])
CC[C@]1(O)C[C@@H]2CN(CCc3c([nH]c4ccccc34)[C@@](C(=O)OC)(c3cc4c(cc3OC)N(C)[C@H]3[C@@](O)(C(N)=O)[C@H](O)[C@]5(CC)C=CCN6CC[C@]43[C@@H]65)C2)C1 [Vindesine sulfate] (top concentration 46.0829 µM)	40.5%	36.3%	221	225
CC[C@]12\C=C/CN3CC[C@]4([C@@H](N(C)C5=CC(=C(C=C45)[C@]6(C[C@H]7C[C@H](CN(C7)CC8=C6[NH]C9=C8C=CC=C9)C(C)(F)F)C(=O)OC)OC)[C@](O)([C@@H]1OC(C)=O)C(=O)OC)[C@H]23 [Vinflunine] (top concentration 46.0829 µM)	17.2%	8.01%	267	265
CCC1=C[C@@H]2CN(C1)Cc1c([nH]c3ccccc13)[C@@](C(=O)OC)(c1cc3c(cc1OC)N(C)[C@H]1[C@@](O)(C(=O)OC)[C@H](OC(C)=O)[C@]4(CC)C=CCN5CC[C@]31[C@@H]54)C2 [Vinorelbine] (top concentration 46.0829 µM)	43.5%	15.2%	347	264
CCOC(=O)\C1=C\[C@]2(CC)CCCN3CCC4=C([C@H]23)[N]1C5=C4C=CC=C5 [Vinpocetine] (top concentration 46.0829 µM)	4.04%	3.48%	469	490
Cc1c(O)cccc1C(=O)N[C@@H](CSc1ccccc1)[C@H](O)CN1C[C@H]2CCCC[C@H]2C[C@H]1C(=O)NC(C)(C)C [Viracept] (top concentration 46.0829 µM)	20%	3.25%	486	431
C[S+](=O)([O-])c1ccc(C(=O)Nc2ccc(Cl)c(-c3ccccn3)c2)c(Cl)c1 [Vismodegib] (top concentration 46.0829 µM)	64.1%	81.5%	494	535
CC[C@@H]1C(=O)N(C)c2cnc(Nc3ccc(C(=O)NC4CCC(N5CCN(CC6CC6)CC5)CC4)cc3OC)nc2N1C(C)C (some centres not stated) [Volasertib] (top concentration 46.0829 µM)	16.2%	3.26%	345	363
CCOC(=O)N[C@@H]1CC[C@@H]2[C@@H](C1)C[C@H]1C(=O)O[C@H](C)[C@H]1[C@H]2/C=C/c1ccc(-c2cccc(F)c2)cn1 [Vorapaxar] (top concentration 46.0829 µM)	73.5%	53.1%	575	489
C[C@@H](c1ncncc1F)[C@](O)(Cn1cncn1)c1ccc(F)cc1F [Voriconazole] (top concentration 46.0829 µM)	89.1%	97.7%	523	558
O=C(CCCCCCC(=O)Nc1ccccc1)NO [Vorinostat] (top concentration 46.0829 µM)	5.85%	43.4%	382	456
CN[C@@H]1CN(C[C@H]1OC)C2=NC3=C(C=C2)C(=O)C(=C\N3C4=NC=CS4)/C(O)=O [Vosaroxin] (top concentration 23.0415 µM)	46%	23.6%	471	445
c1cncc(CN2CCC(n3ncc4c(N5CCOCC5)nc(-c5ccc6[nH]ccc6c5)nc43)CC2)c1 [WAY-600] (top concentration 46.0829 µM)	27.2%	29.4%	445	407
COc1cc2ncnc(Nc3cc(Br)c(O)c(Br)c3)c2cc1OC [WHI-P97] (top concentration 46.0829 µM)	33.9%	54.9%	294	279
C[C@H](NC(=O)/C(C#N)=C/c1cccc(Br)n1)c1ccccc1 [WP-1066] (top concentration 46.0829 µM)	7.12%	28.2%	408	431
CN1CCN(Cc2ccc(NC(=O)Nc3ccc(Oc4cc(NC(=O)C5CC5)ncn4)cc3)cc2C(F)(F)F)CC1 [WS3] (top concentration 46.0829 µM)	2.06%	35%	384	328
COC(=O)Nc1ccc(-c2nc(N3CCOCC3)c3cnn(C4CCN(C(=O)OC)CC4)c3n2)cc1 [WYE-354] (top concentration 46.0829 µM)	57.3%	34.2%	339	191
COC(=O)Nc1ccc(-c2nc(N3CCOCC3)c3cnn(C4CCN(Cc5cccnc5)CC4)c3n2)cc1 [WYE-687] (top concentration 46.0829 µM)	46.2%	20.2%	452	304
C=CC(=O)Nc1cccc(Oc2nc(Nc3ccc(N4CCN(C)CC4)cc3)ncc2Cl)c1 [WZ-3146] (top concentration 46.0829 µM)	1.38%	3.3%	276	391
C=CC(=O)Nc1cccc(Oc2nc(Nc3ccc(N4CCN(C)CC4)cc3OC)ncc2Cl)c1 [WZ-4002] (top concentration 46.0829 µM)	9.94%	2.18%	161	214
C=CC(=O)Nc1cccc(Sc2nc(Nc3ccc(N4CCN(C)CC4)cc3)ncc2Cl)c1 [WZ-8040] (top concentration 46.0829 µM)	7.02%	1.92%	320	473
CC(=O)CC(C1=CC=CC=C1)C/2=C(O)/C3=CC=CC=C3OC2=O (configuration not stated) [Warfarin sodium] (top concentration 46.0829 µM)	104%	114%	548	501
C[C@H]([C@H]1C\C(=C(CO)/C(=O)O1)C)[C@H]2CC[C@H]3[C@@H]4C[C@H]5O[C@]56[C@@H](O)\C=C/C(=O)[C@]6(C)[C@H]4CC[C@]23C [Withaferin A] (top concentration 46.0829 µM)	0.418%	1.49%	383	364

SMILES	viability (SB.msgc-1 [1])	viability (SB.mhdgc-1 [2])	area under the dose-response curve (SB.msgc-1 [3])	area under the dose-response curve (SB.mhdgc-1 [4])
Cc1cc(-c2ccc(CC(=O)Nc3ccc(-c4cccnc4)cc3)cc2)ccn1 [Wnt-C59] (top concentration 46.0829 µM)	49%	49.6%	501	497
COC[C@H]1OC(=O)C2=COC3=C2[C@@]1(C)\C4=C(C5CCC(=O)[C@@]5(C)C[C@H]4OC(C)=O)/C3=O (some centres not stated) [Wortmannin] (top concentration 46.0829 µM)	43.5%	51.1%	406	443
CCN1CCC(n2cc(CNc3cc(Cl)c4ncc(C#N)c(Nc5ccc(F)c(Cl)c5)c4c3)nn2)CC1 [Wyeth Cot inhibitor-2] (top concentration 46.0829 µM)	29.5%	1.55%	476	389
Cc1ccc([S+](=O)([O-])Nc2nc3ccccc3nc2Nc2ccc3nsnc3c2)cc1 [XL-147] (top concentration 23.0415 µM)	28.4%	43.8%	385	397
COc1cc2c(Nc3ccc(Cl)c(Cl)c3F)ncnc2cc1OCC1C[C@@H]2CN(C)C[C@@H]2C1 (some centres not stated) [XL-647] (top concentration 46.0829 µM)	49.7%	1.67%	225	293
CCOc1cc(N2CCC(O)CC2)ccc1Nc1ncc2c(n1)N(C)c1ccccc1C(=O)N2C [XMD8-92] (top concentration 46.0829 µM)	18.8%	37.5%	464	423
Cc1cc(C(=O)N2CCN(c3cccc(Cl)c3)CC2)n(-c2ccccc2)n1 [XRP-44X] (top concentration 46.0829 µM)	35.7%	46.5%	471	452
CC1=CC(=CC(=C1C\C2=N\CCN2)C)C(C)(C)C [Xylometazoline hydrochloride] (top concentration 46.0829 µM)	90.3%	63.3%	539	460
COc1ccc(C(=O)CC2(O)C(=O)Nc3c(Cl)ccc(Cl)c32)cc1 (configuration not stated) [YK-4-279] (top concentration 46.0829 µM)	32.2%	65.7%	440	438
CN(C)c1ccc2cc(C(=O)N[C@@H](CCCNC(=N)CCl)C(=O)NCc3ccccc3)ccc2c1 [YW3-56] (top concentration 46.0829 µM)	19.8%	2.58%	459	507
COC(=O)[C@@H]1[C@H]2C[C@H]3c4[nH]c5ccccc5c4CCN3C[C@@H]2CC[C@@H]1O [Yohimbine] (top concentration 46.0829 µM)	103%	105%	559	560
FC(F)c1nc2ccccc2n1-c1nc(N2CCOCC2)nc(N2CCOCC2)n1 [ZSTK-474] (top concentration 46.0829 µM)	30.8%	29.3%	369	322
COc1cc(C(=O)NS(=O)(=O)c2ccccc2C)ccc1Cc1cn(C)c2ccc(NC(=O)OC3CCCC3)cc12 [Zafirlukast] (top concentration 46.0829 µM)	1.71%	3.38%	281	420
NC/1=N/C(=O)N(/C=C1)[C@H]2CC[C@@H](CO)O2 [Zalcitabine] (top concentration 46.0829 µM)	49.5%	61.1%	391	428
CC1(CN2CCC(n3c(=O)[nH]c4ccccc43)CC2)OCc2ccccc2-n2cccc21 (configuration not stated) [Zaldaride maleate] (top concentration 46.0829 µM)	20.3%	5.92%	325	510
CC(C(=O)O)c1ccc2c(c1)CC(=O)c1ccccc1S2 (configuration not stated) [Zaltoprofen] (top concentration 46.0829 µM)	49.6%	31.5%	431	452
CC(=O)N[C@@H]1[C@@H](NC(N)=N)\C=C(/O[C@H]1[C@H](O)[C@H](O)CO)C(O)=O [Zanamivir] (top concentration 46.0829 µM)	124%	145%	573	614
COc1nc(C)cnc1N[S+](=O)([O-])c1cccnc1-c1ccc(-c2nnco2)cc1 [Zibotentan] (top concentration 46.0829 µM)	107%	99.7%	589	547
C\C1=C\N([C@H]2C[C@H](N=[N+]=[N-])[C@@H](CO)O2)C(=O)NC1=O [Zidovudine] (top concentration 46.0829 µM)	15.7%	2.86%	575	448
CC(c1cc2ccccc2s1)N(O)C(N)=O (configuration not stated) [Zileuton] (top concentration 46.0829 µM)	87.8%	120%	489	467
CC(C)N[C@@H]1CCn2c(=O)[nH]c3cccc(c32)[C@H]1O [Zilpaterol] (top concentration 46.0829 µM)	19.2%	11.1%	446	402
